From article PMC10254531, “The Effects of 1-O-Acetylbritannilactone Isolated from Inula britannica Flowers on Human Neutrophil Elastase and Inflammation of RAW 264.7 Cells and Zebrafish Larvae” (Molecules, 2023)

Assays:
[1] = molecular target: T1, human neutrophil elastase (HNE) (Homo sapiens, UniProt P08246); test: chromogenic enzyme assay with MeO-Suc-AAPV-pNA; Lineweaver-Burk and Dixon plots; assay type: biochemical
T1 construct: gene ELANE
T1 sequence (P08246 30-247): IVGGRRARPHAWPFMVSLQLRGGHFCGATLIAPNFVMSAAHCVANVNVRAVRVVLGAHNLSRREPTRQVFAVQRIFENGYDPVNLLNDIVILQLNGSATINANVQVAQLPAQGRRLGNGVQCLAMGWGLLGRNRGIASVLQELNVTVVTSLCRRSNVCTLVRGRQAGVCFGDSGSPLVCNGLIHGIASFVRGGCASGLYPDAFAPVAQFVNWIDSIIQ

[2] = molecular target: T1, human neutrophil elastase (HNE); test: chromogenic enzyme assay with MeO-Suc-AAPV-pNA (positive control); assay type: biochemical

Ki [1] [µM] | SMILES | IC50 [2] [µM]
2.4 | C=C1C(=O)O[C@@H]2CC(C)=C([C@@H](C)CCCOC(C)=O)[C@@H](O)[C@H]12 [ABL, 1-O-acetylbritannilactone] | 
 | O=C(O[C@@H]1Cc2c(O)cc(O)cc2O[C@@H]1c1cc(O)c(O)c(O)c1)c1cc(O)c(O)c(O)c1 [epigallocatechin gallate] | 7.2 ± 0.5
